Here are results for 1 compound from patent US9573907B2, “2, 4-pyrimidine derivatives and use thereof” (SNU R&DB FOUNDATION, priority 2009, dated 2017).

For one test, the system named is NZB/W F1 mouse. As to the kind of experiment: Survival rate of a lupus animal model. The format is in vivo. The conditions noted are these: 30 mg/kg intraperitoneally once a day, 25-week aged male mice. The procedure: An NZB/W F1 mouse is a lupus animal model showing a voluntary lupus symptom. On the animal model, the effect of 2,4-pyrimidine derivatives was tested.
Each group included 10, 25-week aged male NZB/W F1 mice. Each group was intraperiotneally administered with a control (5% DMSO solution) or a testing agent (2,4-pyrimidine derivative in a dose of 30 mg/kg) once a day. Except for mice which died by worsening of lupus symptoms, the ratio of surviving mice was analyzed.

In a further test the target is T1, gp96 V706A/L707A (Homo sapiens, UniProt P14625, L711A/V710A).
T1 construct: made in house; host or cells: Escherichia coli BL21 (DE3)
Kind of test: Surface plasmon resonance, GPM1 binding to gp96 mutant V706A/L707A. How it is done:
(§1) Human gp96 was expressed as His tag fusion protein in Escherichia coli BL21 (DE3) and purified by nickel affinity chromatography. His-tagged human gp96 was immobilized onto CM5 sensor chips using standard amine coupling2. PBS was used as a running buffer. The carboxymethyl dextran surface within one side of the flow cell was activated with a 7-min injection of a 1:1 ratio of 0.4M EDC and 0.1M NHS. The protein was coupled to the surface with a 7-min injection of gp96 diluted in 10 mM sodium acetate, pH 3.7. Remaining activated groups were blocked with a 7-min injection of 1.0M ethanolamine, pH 8.5. GPM1 compound was dissolved directly in the PBS running buffer containing 1% DMSO and injected at a flow rate of 20 μl/min at 25° C. and the binding was determined by the change in resonance units (RU). The compound concentration varied from 10 nM to 25 μM and each concentration was tested at least three times. All of the bound complexes dissociated back to baseline within a reasonable time frame. Therefore, no regeneration was required. Sensorgram was processed by subtracting the binding response recorded from the control surface, followed by subtracting an average of the buffer blank injections from the reaction spot. To determine kinetic rate constants, all data sets were fit to a simple 1:1 binding with drifting baseline model using BIAevaluation program.
(§2) The present inventors compared the dose-dependent effect of GPM1 and NC1 on the interaction of gp96 and AIMP1 using ELISA. […] The present inventors monitored the binding kinetics of GPM1 to gp96 or AIMP1 by surface plasmon resonance (SPR) using BIAcore 3000. […] To further define the GPM1 binding region of gp96 (Han, J. M., Park, S. G., Liu, B., Park, B. J., Kim, J. Y., Jin, C. H., Song, Y. W., Li, Z. & Kim, S. Am. J. Pathol. 170, 2042-2054 (2007)), the present inventors introduced point mutations at L707, V706, V712, L713, F714, Y731 and M738 that are located within AIMP1 binding region of gp96 and monitored how the mutations at these sites would affect the binding of GPM1 to gp96 using SPR method.

In a further test the test system is bone marrow-derived DCs. Kind of test: DC maturation assay (secreted TNFα). The format is cell-based, mice. The conditions noted are these: AIMP1−/− splenocytes pretreated 10 μM, 24 h; compared to NC1. The procedure:
FIGS. 1 to 9 represent suppression of cell surface gp96 by GPM1 reduces DC maturation and B220^+ population in gp96tm transgenic mice. (FIG. 1) Chemical structure of GPM1 (Formula 2) and negative control (NC1, Formula 16) used in this study. (FIG. 2) The dose-dependent effect of GPM1 or NC1 on the AIMP1-gp96 interaction using ELISA method as described. The indicated concentrations of the two compounds and biotin-conjugated murine gp96 were added to AIMP1 coated on the surface of microtiter wells, and gp96 bound to AIMP1 was detected with strepavidin-conjugated peroxidase. (FIG. 3) The binding of GPM1 to gp96 was examined by surface plasmon resonance (SPR). GPM1 at the indicated concentrations was injected to immobilized gp96 and the binding was measured using Biacore 3000. The response data were processed using data from a reference surface and buffer injections. Each concentration was tested in triplicate. (FIG. 4) RAW24.7 cells were treated with 10 μM GPM1 for 24 h. Cell lysates were immunoprecipitated with control IgG or anti-gp96 antibody and the immunoprecipitated proteins were immunoblotted with anti-KDELR1, antiAIMP1 and gp96 antibodies. WCL means whole cell lysate. […] TNFα secreted from BMDCs was quantified by ELISA. […]

A further test deals with T2, gp96 V712A/L713A/F714Y (Homo sapiens, UniProt P14625, F718Y/L717A/V716A).
T2 construct: made in house; host or cells: Escherichia coli BL21 (DE3)
Kind of test: Surface plasmon resonance, GPM1 binding to gp96 mutant V712A/L713A/F714Y. How it is done: as §1, §2

T2 sequence (P14625 22-803 V716A/L717A/F718Y): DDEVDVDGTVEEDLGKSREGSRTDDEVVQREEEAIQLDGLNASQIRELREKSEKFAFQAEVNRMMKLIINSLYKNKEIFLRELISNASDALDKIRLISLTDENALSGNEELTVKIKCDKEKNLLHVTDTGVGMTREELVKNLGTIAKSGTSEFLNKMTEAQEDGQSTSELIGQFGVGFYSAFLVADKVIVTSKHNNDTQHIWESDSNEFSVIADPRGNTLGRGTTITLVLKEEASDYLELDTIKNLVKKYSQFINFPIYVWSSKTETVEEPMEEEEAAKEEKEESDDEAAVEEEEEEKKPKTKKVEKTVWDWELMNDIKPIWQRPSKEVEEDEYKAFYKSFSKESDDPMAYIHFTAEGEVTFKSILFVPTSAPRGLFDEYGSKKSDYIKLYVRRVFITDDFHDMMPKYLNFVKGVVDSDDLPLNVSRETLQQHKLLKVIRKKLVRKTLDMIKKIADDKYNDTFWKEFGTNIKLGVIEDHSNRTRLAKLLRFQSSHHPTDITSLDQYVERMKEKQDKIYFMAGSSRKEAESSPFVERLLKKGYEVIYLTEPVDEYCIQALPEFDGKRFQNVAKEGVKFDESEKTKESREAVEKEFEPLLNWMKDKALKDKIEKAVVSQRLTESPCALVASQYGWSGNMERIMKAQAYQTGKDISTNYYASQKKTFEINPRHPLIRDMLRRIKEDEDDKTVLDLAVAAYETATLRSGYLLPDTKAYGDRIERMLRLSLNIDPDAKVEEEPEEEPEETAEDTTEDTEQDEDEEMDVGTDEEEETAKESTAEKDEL
T1 sequence (P14625 22-803 V710A/L711A): as the sequence (P14625 22-803 V716A/L717A/F718Y) above, with V689A, L690A, A695V, A696L, Y697F counted along it

For `COC(=O)[C@@H](Oc1nc(OC)cc(OC)n1)C(C)C` [GPM1, (S)-methyl 2-(4,6-dimethoxypyrimidin-2-yloxy)-3-methylbutanoate], in the test on NZB/W F1 mouse, the “ratio of mice which died by lupus” value is recorded as “significantly reduced”. The figures for the Kd on gp96 V706A/L707A and on gp96 V712A/L713A/F714Y were 0.0886 µM and 21.9 µM, respectively. Moreover, the entries for the “koff (dissociation rate constant)” value at gp96 V706A/L707A and on gp96 V712A/L713A/F714Y were 0.0102 s⁻¹ and 0.0142 s⁻¹, respectively. Further, the kon on gp96 V706A/L707A (read-out: Ka) was determined as 115000 M⁻¹ s⁻¹; at gp96 V712A/L713A/F714Y (read-out: Ka), 650 M⁻¹ s⁻¹. Besides, the “amount of secreted TNF-α” value in the test with bone marrow-derived DCs is “significantly reduced”.

Broadly, the Kd is the free concentration of one partner at which half of the binding sites on the other are occupied at equilibrium, for simple one-to-one binding. A low value points to higher affinity.
